“And” between values parts separate entries of the source, which are not always exact repeats. Equal values may be shown once. Read-outs that look alike come from different tables or passages of the source. Blank lines part the entries; values can stand above or below the compound they belong to.
Experiments:
CYP3A = test: Classification of ticagrelor as CYP3A inhibitor from changes in tadalafil AUC and clearance; type: in vivo; details: weak inhibitor = increases AUC of CYP substrate 1.25-fold to 2-fold or reduces clearance by 20–50%; inferred from tadalafil AUC (1.61-fold) and clearance (37%) in rats
Method: The experiment was performed in a parallel design. A total of 20 rats were randomly divided into two groups. The control group, Group N (n = 10, non-pretreated rats), was orally administered for 7 days only with the vehicle (normal saline/polyethylene glycol 400/dimethyl sulfoxide = 40:20:20). Group T (n = 10, ticagrelor-pretreated rats), an experimental group, received 10 mg/kg of ticagrelor in the vehicle once a day for 7 days orally. Thereafter, on the seventh day, tadalafil (2 mg/kg) was orally administered 30 min after the final administration of the vehicle or ticagrelor. Doses of all samples were calculated according to the weight of the rats and administered using gavage. The dose of ticagrelor and tadalafil given to rats were determined by converting the human doses (90 mg for ticagrelor and 20 mg for tadalafil) to animal doses with body surface area, according to the United States Food and Drug Administration guidelines. […] The plasma was collected and stored at −20 °C until the concentration of tadalafil was analyzed by LC-MS/MS.
Pharmacokinetic data were analyzed based on the non-compartment analysis of WinNonlin software 8.1 (Pharsight Corp., Sunnyvale, CA, USA). The maximum plasma concentration of tadalafil (maximum concentration (Cmax)) and the time to reach the maximal plasma concentration (Tmax) of tadalafil were determined from the plasma concentration-time profiles. […]

[1] = One-compartment pharmacokinetic modeling of the plasma concentration-time profile of tadalafil; type: in vivo, Sprague-Dawley rats; details: one-compartment model; for k el: Sprague-Dawley, rat, plasma, read-out: Ke (converted); for k el / Ka / V/F: tadalafil 2 mg/kg oral, mean ± SD, n = 10
Method: (§1) The experiment was performed in a parallel design. A total of 20 rats were randomly divided into two groups. The control group, Group N (n = 10, non-pretreated rats), was orally administered for 7 days only with the vehicle (normal saline/polyethylene glycol 400/dimethyl sulfoxide = 40:20:20). Group T (n = 10, ticagrelor-pretreated rats), an experimental group, received 10 mg/kg of ticagrelor in the vehicle once a day for 7 days orally. Thereafter, on the seventh day, tadalafil (2 mg/kg) was orally administered 30 min after the final administration of the vehicle or ticagrelor. Doses of all samples were calculated according to the weight of the rats and administered using gavage. The dose of ticagrelor and tadalafil given to rats were determined by converting the human doses (90 mg for ticagrelor and 20 mg for tadalafil) to animal doses with body surface area, according to the United States Food and Drug Administration guidelines. Blood (0.3 mL) was collected from the retro-orbital plexus or the jugular vein at predetermined time-points (0, 0.33, 0.67, 1, 1.5, 2, 4, 6, 8, 12, and 24 h) after the oral administration. Samples were centrifuged at 15,000× g for 5 min at 4 °C. The plasma was collected and stored at −20 °C until the concentration of tadalafil was analyzed by LC-MS/MS.
Pharmacokinetic modeling of the plasma concentration-time profile of tadalafil was performed using a one-compartment model to investigate the absorption and elimination rates. The parameters of the one-compartment model of tadalafil were estimated based on data from Group N and Group T.
In this model, the shift of the tadalafil amount in the gut compartment and the central compartment is described by the following equations [33]: dG/dt= −Ka·G dC/dt=Ka·G−Ke·C where G and C represent the amount of tadalafil in the gut compartment and the central compartment, respectively. Ka indicates the absorption rate constant from the gut compartment to the central compartment. Ke indicates the elimination rate constant from the central compartment […]. Each equation was applied to both Group N and Group T data through the classic model of WinNolin software 8.1 (Pharsight Corp., Sunnyvale, CA, USA).
Predicted plasma concentrations of tadalafil (Conpred) using the one-compartment model were estimated by the following equation [34]: Conpred= C/(V/F) where V/F indicates the central volume of distribution of tadalafil.

[2] = set-up: method as in PMID 14622499; details: cited from earlier work
[3] = Pharmacokinetic study of tadalafil after oral administration to non-pretreated and ticagrelor-pretreated rats, non-compartment analysis; type: in vivo, Sprague-Dawley rats; details: tadalafil 2 mg/kg oral; for Cmax / AUC(0-inf) / CL/F / Tmax / half-life / AUC(0-t): Sprague-Dawley, rat, plasma, po, 2 mg/kg, mean ± SD, n = 10; for AUC(0-t): read-out: AUC0–24
Method: The concentrations of tadalafil were analyzed by a liquid chromatography tandem-mass spectrometry (LC-MS/MS) system equipped with Agilent 1290 series and Agilent 6495 Triple Quad LC/MS (Agilent Technologies, Santa Clara, CA, USA). A YMC-Triart C18 column (50 × 2.0 mm, 1.9 µm; YMC Inc., Wilmington, NC, USA) was used. The mobile phase was a mixture of 0.2% formic acid in acetonitrile and 0.2% formic acid in distilled water (50:50, v/v), and the flow rate was 0.4 mL/min. The temperature of the column and autosampler were set as 30 °C and 4 °C, respectively. The positive ion mode using Agilent jet stream electrospray ionization (AJS-ESI) was applied to record the scan mass spectra. The ion transitions of tadalafil and IS were set as 390.4→268.1 m/z and 876.4→308.1 m/z, respectively, and detected with a multiple reaction monitoring (MRM) mode. The collision energies for tadalafil and IS were 10 V and 30 V, respectively. The cell accelerator voltage was 5 V and the dwell time was set as 200 ms. The source parameters were set as follows: Gas temperature 200 °C, gas flow 14 L/min, nebulizer 20 psi, sheath gas heater 250 °C, sheath gas flow 11 L/min, capillary 3000 V, and nozzle voltage 1500 V.
as §1
Protein precipitation was applied to extract tadalafil from plasma. Briefly, 200 µL of acetonitrile (0.2 v/v% formic acid) containing 500 ng/mL of IS was added to 20 µL of the plasma sample. After shaking for 5 min, the mixture was centrifuged at 15,000× g for 5 min. The supernatant (150 µL) was transferred and 5 µL of the sample was injected into the LC-MS/MS.
Pharmacokinetic data were analyzed based on the non-compartment analysis of WinNonlin software 8.1 (Pharsight Corp., Sunnyvale, CA, USA). The maximum plasma concentration of tadalafil (maximum concentration (Cmax)) and the time to reach the maximal plasma concentration (Tmax) of tadalafil were determined from the plasma concentration-time profiles. The area under the plasma concentration vs time curve from 0 to 24 h (AUC0–24) was calculated by the linear trapezoidal rule and the area under the plasma concentration vs time curve from 0 h to infinite time (AUC0–∞) was estimated by extrapolating time to infinity. The elimination half-life (T1/2) and apparent total clearance (CL/F) were determined from the ln 2/elimination rate constant and dose/AUC0–∞, respectively.

[4] = longer than sildenafil or vardenafil; cited from earlier work
[5] = Group T, ticagrelor-pretreated rats
[6] = ticagrelor-pretreated vs non-pretreated rats
[7] = Group T, ticagrelor-pretreated rats (10 mg/kg, 7 days)
[8] = rats, ticagrelor pretreatment, p < 0.05
[9] = rats, ticagrelor-pretreated vs non-pretreated

CYP3A inhibitor classification (CYP3A): weak CYP3A inhibitor
SMILES: CCCSc1nc(N[C@@H]2C[C@H]2c2ccc(F)c(F)c2)c2nnn([C@@H]3C[C@H](OCCO)[C@@H](O)[C@H]3O)c2n1 [ticagrelor, Ticagrelor]

SMILES: CN1CC(=O)N2[C@H](c3ccc4c(c3)OCO4)c3[nH]c4ccccc4c3C[C@@H]2C1=O [tadalafil, Tadalafil]
k el ([1]; Group N, non-pretreated rats): 4.72e-05 s⁻¹
k el [1, 5]: 3.61e-05 s⁻¹
Ka ([1]; Group N, non-pretreated rats): 1.71 ± 0.91 h⁻¹
V/F ([1]; Group N, non-pretreated rats): 4.39 ± 0.78 L/kg and 4.39 ± 0.76 L/kg
Ka [1, 5]: 1.14 ± 0.73 h⁻¹
V/F [1, 5]: 3.36 ± 0.95 L/kg
Ka Ratio (Group T/Group N) [1, 6]: 0.67
Ke Ratio (Group T/Group N) [1, 6]: 0.77
V/F Ratio (Group T/Group N) [1, 6]: 0.77
half-life ([2]; elderly men): about 21.6 h
half-life ([2]; normal healthy men, after administration): approximately 17.5 h
Cmax ([3]; Group N, non-pretreated rats (vehicle 7 days)): 376 ± 72.8 ng/mL
AUC(0-inf) ([3]; Group N, non-pretreated rats): 3070 ± 743 ng·h/mL
CL/F ([3]; Group N, non-pretreated rats): 11.3 mL/min/kg
Tmax ([3]; Group N, non-pretreated rats): 1.45 ± 0.5 h
half-life ([3]; Group N, non-pretreated rats): 3.15 ± 0.23 h
AUC(0-t) ([3]; Group N, non-pretreated rats): 3050 ± 732 ng·h/mL
Cmax ([3]; Group T, ticagrelor-pretreated rats (10 mg/kg oral once a day, 7 days)): 433 ± 120 ng/mL
AUC(0-inf) [3, 7]: 5100 ± 1800 ng·h/mL
CL/F [3, 7]: 7.17 mL/min/kg
Tmax [3, 7]: 3.22 ± 1.3 h
half-life [3, 7]: 4.47 ± 0.89 h
AUC(0-t) [3, 7]: 4900 ± 1590 ng·h/mL
increase of AUC of tadalafil by co-administration with ticagrelor ([3]; rats, ticagrelor pretreatment): approximately 61%
increase of Tmax, Group T compared to Group N ([3]; rats, ticagrelor pretreatment): 2.22 fold
reduction of tadalafil clearance, Group T compared with Group N ([3]; rats, ticagrelor pretreatment): 37%
increase of Cmax, Group T compared to Group N ([3]; rats, ticagrelor pretreatment, no significant difference (p = 0.3332)): 1.15 fold
increase of AUC0–24 (systemic exposure), Group T compared to Group N [3, 8]: 1.61 fold
increase of AUC0–∞, Group T compared to Group N [3, 8]: 1.66 fold
AUC0–24 Ratio (Group T/Group N) [3, 9]: 1.61
AUC0–∞ Ratio (Group T/Group N) [3, 9]: 1.66
CL/F Ratio (Group T/Group N) [3, 9]: 0.63
Cmax Ratio (Group T/Group N) [3, 9]: 1.15
T1/2 Ratio (Group T/Group N) [3, 9]: 1.42
Tmax Ratio (Group T/Group N) [3, 9]: 2.22
clinical efficacy (duration) [4]: up to 36 h

— article PMC6680770, “Effect of Ticagrelor, a Cytochrome P450 3A4 Inhibitor, on the Pharmacokinetics of Tadalafil in Rats” (Pharmaceutics, 2019)
